According to PubChem BioAssay (NCI):
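Where inhibition never reached the appropriate level, the endpoint shown equals the highest concentration tested. Otherwise, values were interpolated linearly from a five-concentration, 48-hour dose response in 96-well plates. Definition used: TGI = concentration required for complete inhibition of growth.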

Columns and labels:
Assay in all cases: NCI tumour cell line growth inhibition, 48 h
HOP-62 NSCLC = tested on: HOP-62 NSCLC
SF-268 CNS = tested on: SF-268 CNS
OVCAR-5 ovarian = tested on: OVCAR-5 ovarian
XF 498 CNS = tested on: XF 498 CNS
SNB-75 CNS = tested on: SNB-75 CNS
ACHN renal = tested on: ACHN renal
HCT-116 colon = tested on: HCT-116 colon
DMS 114 small cell lung = tested on: DMS 114 small cell lung
SK-MEL-5 melanoma = tested on: SK-MEL-5 melanoma
A549 NSCLC = tested on: A549 NSCLC
EKVX NSCLC = tested on: EKVX NSCLC
K-562 leukemia = tested on: K-562 leukemia
OVCAR-8 ovarian = tested on: OVCAR-8 ovarian
KM12 colon = tested on: KM12 colon
LOX IMVI melanoma = tested on: LOX IMVI melanoma
UO-31 renal = tested on: UO-31 renal
NCI-H226 lung = tested on: NCI-H226 lung
IGROV1 ovarian = tested on: IGROV1 ovarian
NCI-H522 lung = tested on: NCI-H522 lung
MALME-3M melanoma = tested on: MALME-3M melanoma
TK-10 renal = tested on: TK-10 renal
NCI-H23 lung = tested on: NCI-H23 lung
M19-MEL melanoma = tested on: M19-MEL melanoma
COLO 205 colon = tested on: COLO 205 colon
SK-OV-3 ovarian = tested on: SK-OV-3 ovarian
SF-539 CNS = tested on: SF-539 CNS
OVCAR-3 ovarian = tested on: OVCAR-3 ovarian
SK-MEL-2 melanoma = tested on: SK-MEL-2 melanoma
SK-MEL-28 melanoma = tested on: SK-MEL-28 melanoma
A498 renal = tested on: A498 renal
SW-620 colon = tested on: SW-620 colon
CCRF-CEM leukemia = tested on: CCRF-CEM leukemia
UACC-62 melanoma = tested on: UACC-62 melanoma
HOP-18 NSCLC = tested on: HOP-18 NSCLC
SNB-78 CNS = tested on: SNB-78 CNS
HCT-15 colon = tested on: HCT-15 colon
SF-295 CNS = tested on: SF-295 CNS
M14 melanoma = tested on: M14 melanoma
SNB-19 CNS = tested on: SNB-19 CNS
MOLT-4 leukemia = tested on: MOLT-4 leukemia
HT29 colon = tested on: HT29 colon
786-0 renal = tested on: 786-0 renal
RXF 393 renal = tested on: RXF 393 renal
LXFL 529 NSCLC = tested on: LXFL 529 NSCLC
DLD-1 colon = tested on: DLD-1 colon
HCC-2998 colon = tested on: HCC-2998 colon
SN12C renal = tested on: SN12C renal
KM20L2 colon = tested on: KM20L2 colon
NCI-H460 lung = tested on: NCI-H460 lung
U251 CNS = tested on: U251 CNS
OVCAR-4 ovarian = tested on: OVCAR-4 ovarian
HOP-92 NSCLC = tested on: HOP-92 NSCLC
UACC-257 melanoma = tested on: UACC-257 melanoma
DMS 273 small cell lung = tested on: DMS 273 small cell lung
RPMI-8226 leukemia = tested on: RPMI-8226 leukemia
CAKI-1 renal = tested on: CAKI-1 renal
HL-60(TB) leukemia = tested on: HL-60(TB) leukemia

C=C1CCc2occ(C)c2C2C1C1=C(CC(C)C1=O)C1OC12C (stereo unspecified)
TGI (HOP-62 NSCLC): > 100 µM | TGI (SF-268 CNS): > 100 µM | TGI (OVCAR-5 ovarian): > 100 µM | TGI (XF 498 CNS): > 100 µM | TGI (SNB-75 CNS): > 100 µM | TGI (ACHN renal): > 100 µM | TGI (HCT-116 colon): > 100 µM | TGI (DMS 114 small cell lung): > 100 µM | TGI (SK-MEL-5 melanoma): > 100 µM | TGI (A549 NSCLC): > 100 µM | TGI (EKVX NSCLC): > 100 µM | TGI (K-562 leukemia): > 100 µM | TGI (OVCAR-8 ovarian): > 100 µM | TGI (KM12 colon): > 100 µM | TGI (LOX IMVI melanoma): > 100 µM | TGI (UO-31 renal): > 100 µM | TGI (NCI-H226 lung): > 100 µM | TGI (IGROV1 ovarian): > 100 µM | TGI (NCI-H522 lung): > 100 µM | TGI (MALME-3M melanoma): > 100 µM | TGI (TK-10 renal): > 100 µM | TGI (NCI-H23 lung): > 100 µM | TGI (M19-MEL melanoma): > 100 µM | TGI (COLO 205 colon): > 100 µM | TGI (SK-OV-3 ovarian): > 100 µM | TGI (SF-539 CNS): > 100 µM | TGI (OVCAR-3 ovarian): > 100 µM | TGI (SK-MEL-2 melanoma): > 100 µM | TGI (SK-MEL-28 melanoma): > 100 µM | TGI (A498 renal): > 100 µM | TGI (SW-620 colon): > 100 µM | TGI (CCRF-CEM leukemia): > 100 µM | TGI (UACC-62 melanoma): > 100 µM | TGI (HOP-18 NSCLC): 6.77 µM | TGI (SNB-78 CNS): > 100 µM | TGI (HCT-15 colon): > 100 µM | TGI (SF-295 CNS): > 100 µM | TGI (M14 melanoma): > 100 µM | TGI (SNB-19 CNS): > 100 µM | TGI (MOLT-4 leukemia): > 100 µM | TGI (HT29 colon): > 100 µM | TGI (786-0 renal): > 100 µM | TGI (RXF 393 renal): > 100 µM | TGI (LXFL 529 NSCLC): > 100 µM | TGI (DLD-1 colon): > 100 µM | TGI (HCC-2998 colon): > 100 µM | TGI (SN12C renal): > 100 µM | TGI (KM20L2 colon): > 100 µM | TGI (NCI-H460 lung): > 100 µM | TGI (U251 CNS): > 100 µM | TGI (OVCAR-4 ovarian): > 100 µM | TGI (HOP-92 NSCLC): > 100 µM | TGI (UACC-257 melanoma): > 100 µM

COc1cc([C@@H]2c3cc4c(cc3[C@@H](OC(=O)c3ccccc3)C3COC(=O)[C@@H]32)OCO4)cc(OC)c1O (stereo partly specified)
TGI (HOP-62 NSCLC): 28.7 µM | TGI (SF-268 CNS): > 100 µM | TGI (OVCAR-5 ovarian): > 100 µM | TGI (SNB-75 CNS): 36.8 µM | TGI (ACHN renal): 18.4 µM | TGI (DMS 114 small cell lung): 0.0229 µM | TGI (A549 NSCLC): 35.6 µM | TGI (DMS 273 small cell lung): > 100 µM | TGI (K-562 leukemia): > 100 µM | TGI (OVCAR-8 ovarian): > 100 µM | TGI (LOX IMVI melanoma): 84.5 µM | TGI (UO-31 renal): 33.5 µM | TGI (MALME-3M melanoma): 29.9 µM | TGI (TK-10 renal): > 100 µM | TGI (NCI-H23 lung): 0.0642 µM | TGI (M19-MEL melanoma): 69 µM | TGI (COLO 205 colon): 0.963 µM | TGI (SK-OV-3 ovarian): > 100 µM | TGI (RPMI-8226 leukemia): 44 µM | TGI (CAKI-1 renal): 79.2 µM | TGI (SK-MEL-28 melanoma): > 100 µM | TGI (SW-620 colon): > 100 µM | TGI (CCRF-CEM leukemia): > 100 µM | TGI (HOP-18 NSCLC): > 100 µM | TGI (HL-60(TB) leukemia): 15.4 µM | TGI (SF-295 CNS): > 100 µM | TGI (MOLT-4 leukemia): 41.4 µM | TGI (786-0 renal): 45.5 µM | TGI (LXFL 529 NSCLC): > 100 µM | TGI (HCC-2998 colon): > 100 µM | TGI (SN12C renal): 26.9 µM | TGI (NCI-H460 lung): 20.9 µM | TGI (OVCAR-4 ovarian): > 100 µM
